In one data set the target is T1, CYP2C19 (Homo sapiens, UniProt P33261).
T1 construct: purchased Promega V9880
Description: P450-Glo CYP inhibition assay, CYP2C19. It is filed as in vitro ADME. How it is done:
The potential for CYP450 inhibition (CYP1A2, 2C9, 2C19, 2D6, and […]) was assessed using Promega P450-Glo^TM CYP450 assay systems. Luciferin-ME served as the substrate for CYP1A2, and the inhibitor α-naphthoflavone was used as a positive control. Luciferin-H was used as the substrate for CYP2C9, and the inhibitor sulfaphenazole was used as a positive control. Luciferin-H EGE was selected as the substrate for CYP2C19, whereas the inhibitor amitriptyline served as a positive control. Luciferin-ME EGE was used as the substrate for CYP2D6, whereas the inhibitor quinidine served as a positive control. Luciferin-BE was used as the substrate for CYP3A4, whereas the inhibitor ketoconazole was used as a positive control. The assays were performed using the excitation and emission wavelengths recommended by the manufacturer. Briefly, a CYP enzyme and a P450-Glo™ substrate were combined in potassium phosphate (0.1 M KPO4) buffer, with or without a test compound of interest, and […]. The reaction was initiated by adding two volumes of 2 times concentrated NADPH regeneration system. […] Luminescence was subsequently measured using a Tecan Infinite M1000 PRO microplate reader (Tecan Group Ltd., Switzerland). The percent inhibition was calculated relative to that of the positive control at a fixed concentration. […]

The next data set deals with T2, TEC (Homo sapiens, UniProt P42680).
T2 construct: purchased Reaction Biology Corporation
T2 sequence (P42680 1-631): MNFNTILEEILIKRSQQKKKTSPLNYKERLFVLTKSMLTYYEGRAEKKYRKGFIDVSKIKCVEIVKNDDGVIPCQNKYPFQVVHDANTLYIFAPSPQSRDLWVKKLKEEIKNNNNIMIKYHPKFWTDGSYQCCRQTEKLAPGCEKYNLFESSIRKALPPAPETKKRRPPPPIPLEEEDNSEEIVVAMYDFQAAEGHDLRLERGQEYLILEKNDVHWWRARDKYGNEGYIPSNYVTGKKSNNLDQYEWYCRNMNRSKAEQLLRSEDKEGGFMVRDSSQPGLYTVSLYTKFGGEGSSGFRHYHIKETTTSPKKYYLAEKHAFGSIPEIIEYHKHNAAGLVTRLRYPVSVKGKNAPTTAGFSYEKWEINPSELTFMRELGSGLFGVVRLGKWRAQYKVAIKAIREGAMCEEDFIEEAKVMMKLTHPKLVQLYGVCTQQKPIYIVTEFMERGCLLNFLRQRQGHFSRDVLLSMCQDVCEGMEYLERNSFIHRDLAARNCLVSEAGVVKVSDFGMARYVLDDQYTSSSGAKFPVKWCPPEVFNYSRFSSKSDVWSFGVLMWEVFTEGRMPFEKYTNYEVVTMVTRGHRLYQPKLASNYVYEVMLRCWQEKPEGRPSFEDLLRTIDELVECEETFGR
Put plainly: HotSpot kinase enzymatic assay, TEC. The data set is classed as biochemical. The procedure:
Therefore, efforts have focused on developing new compounds with good selectivity profiles. […] Compound 8 was selective against BTK. The biochemical activities of compound 8 differed among TEC family kinases. […] The inhibitory potential of compound 8 differed between members of the EGFR family. […] The inhibitory activity of compound 8 against JAK3 was also low.
Kinase enzymatic assays for BTK, BMX, TXK, TEC, ITK, EGFR, ERBB2, ERBB4, and JAK3 were performed at Reaction Biology Corporation (www.reactionbiology.com, Malvern, PA, USA) using the HotSpot assay platform. Briefly, specific kinase/substrate pairs and the required cofactors were prepared in a reaction buffer comprising 20 mM HEPES (pH 7.5), 10 mM MgCl2, 1 mM EGTA, 0.02% Brij35, 0.02 mg/mL BSA, 0.1 mM Na3VO4, 2 mM DTT, and 1% DMSO. The compounds were added to the reaction mixture and allowed to incubate. Approximately 20 min later, a mixture of ATP (Sigma-Aldrich, St. Louis, MO, USA) and ^33P ATP (PerkinElmer, Waltham, MA, USA) was added to the reaction mixture at a final concentration of 10 μM. The reactions were performed at room temperature for 120 min; subsequently, the reactions were spotted onto P81 ion exchange filter papers (Whatman Inc., Maidstone, UK). Any unbound phosphate was removed by thoroughly washing the filter papers with 0.75% phosphoric acid. […]

T1 sequence (P33261 whole entry): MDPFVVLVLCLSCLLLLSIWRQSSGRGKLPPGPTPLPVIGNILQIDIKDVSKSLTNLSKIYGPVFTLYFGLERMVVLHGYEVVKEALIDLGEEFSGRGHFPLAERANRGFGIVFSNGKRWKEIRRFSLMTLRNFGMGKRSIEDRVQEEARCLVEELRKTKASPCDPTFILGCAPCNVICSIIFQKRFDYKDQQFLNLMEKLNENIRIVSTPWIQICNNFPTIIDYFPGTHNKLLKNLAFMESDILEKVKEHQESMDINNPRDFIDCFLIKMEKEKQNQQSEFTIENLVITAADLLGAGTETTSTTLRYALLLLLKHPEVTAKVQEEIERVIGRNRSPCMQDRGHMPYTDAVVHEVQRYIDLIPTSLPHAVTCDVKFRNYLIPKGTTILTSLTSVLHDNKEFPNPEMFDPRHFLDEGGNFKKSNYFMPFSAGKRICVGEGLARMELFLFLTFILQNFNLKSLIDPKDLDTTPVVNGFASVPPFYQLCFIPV

In general, inhibition refers to the percentage by which the read-out fell short of the control. A low value points to a weak effect. In the case of `C=CC(=O)O[C@H]1Cc2cc3ccc(=O)oc3cc2OC1(C)C` [Compound 8, (7S)-(+)-Acrylic acid, 8,8-dimethyl-2-oxo-6,7-dihydro-2H,8H-pyrano [3,2-g]chromen-7-yl ester], the “CYP2C19 inhibition (in words)” value at CYP2C19 is given as “moderately inhibited”. For the same compound, at CYP2C19 (% inhibition of human CYP isozymes at 10 μM), the “CYP inhibition 2C19” value is 48.2%. Besides, at TEC, the “inhibitory activity against TEC (in words)” value was “moderate activity”. This compound also returned an inhibition at 10 µM against TEC (10 µM, mean of two experiments) of 54.5%.

For the origin of these results see article PMC7663272, “Discovery of Tricyclic Pyranochromenone as Novel Bruton’s Tyrosine Kinase Inhibitors with In Vivo Antirheumatic Activity” (International Journal of Molecular Sciences, 2020).
